In patent publication US20020137929A1, “1 - (3-heterocyclylphenyl) isothiourea, -isourea, -guanidine and -amidine herbicidal agents” (Intellectual Property Department, BASF Aktiengesellschaft, priority 1998, published 2002):

Assays:
[1] = test system: CASOB (Sicklepod); experiment: Preemergence herbicidal evaluation; format: in vivo, Cassia obtusifolia; conditions: rated 4-5 weeks after treatment
Procedure, shortened: (§1)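 Seeds were mixed with potting soil and planted on about one inch of soil, then sprayed with test compound in aqueous acetone at about 0.0156 to 0.500 kg per hectare. Plants grew under standard greenhouse care and were visually rated 0-9 against untreated controls 4-5 weeks post-treatment.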

[2] = test system: ECHCG (Barnyardgrass); experiment: Postemergence herbicidal evaluation; format: in vivo, Echinochloa crus-galli; conditions: postemergence
Procedure, shortened: (§2)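 Compound is applied as a foliar spray to seedlings about two weeks old, formulated in equal parts acetone and water with 0.5% TWEEN 20 and delivered at 40 psi to give about 0.0156–0.500 kg per hectare. Injury is rated visually 0–9 after four to five weeks.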

[3] = test system: ORYSAT (Rice, Tebonnet); experiment: Postemergence herbicidal evaluation; format: in vivo, Oryza sativa, (L.) Tebonnet; conditions: postemergence
Procedure, shortened: as §2

[4] = test system: GALAP (Galium); experiment: Preemergence herbicidal evaluation; format: in vivo, Galium aparine; conditions: rated 4-5 weeks after treatment
Procedure, shortened: as §1

[5] = test system: CHEAL (Lambsquarters, Common); experiment: Preemergence herbicidal evaluation; format: in vivo, Chenopodium album; conditions: rated 4-5 weeks after treatment
Procedure, shortened: as §1

[6] = test system: CYPSE (Flatsedge); experiment: Preemergence weed control under flooded paddy conditions; format: in vivo, Cyperus serotinus; conditions: rated 3-4 weeks after treatment
Procedure, shortened: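 Ratings on a 0-9 visual scale cover stand, vigor, malformation, size, chlorosis and overall appearance relative to a control, taken three to four weeks post-treatment. Application was into flood water over freshly sown silt loam at roughly 0.0313 to 0.500 kg/ha.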

[7] = test system: ZEAMX (Corn, Field); experiment: Postemergence herbicidal evaluation; format: in vivo, Zea mays; conditions: postemergence
Procedure, shortened: as §2

[8] = test system: AMBEL (Ragweed, Common); experiment: Postemergence herbicidal evaluation; format: in vivo, Ambrosia artemisifolia; conditions: postemergence
Procedure, shortened: as §2

[9] = test system: ABUTH (Velvetleaf); experiment: Postemergence herbicidal evaluation; format: in vivo, Abutilon theophrasti; conditions: postemergence
Procedure, shortened: as §2

[10] = test system: CHEAL (Lambsquarters, Common); experiment: Postemergence herbicidal evaluation; format: in vivo, Chenopodium album; conditions: postemergence
Procedure, shortened: as §2

[11] = test system: GLXMAW (Soybean, Williams); experiment: Postemergence herbicidal evaluation; format: in vivo, Glycine max, (L.) Merr. cv Williams; conditions: postemergence
Procedure, shortened: as §2

[12] = test system: AMBEL (Ragweed, Common); experiment: Preemergence herbicidal evaluation; format: in vivo, Ambrosia artemisifolia; conditions: rated 4-5 weeks after treatment
Procedure, shortened: as §1

[13] = rate 0.0625 kg/ha, rating scale 0-9
[14] = rate 0.1250 kg/ha, rating scale 0-9
[15] = rate 0.2500 kg/ha, rating scale 0-9
[16] = rate 0.0156 kg/ha, rating scale 0-9
[17] = rate 0.0313 kg/ha, rating scale 0-9

Compound: C=CCN1C(=O)C(CC(=O)NO)SC1=Nc1cc(-n2c(=O)cc(C(F)(F)F)n(C)c2=O)c(F)cc1Cl (stereo not shown) [Compound 161, 3-Allyl-2-{{2-chloro-5-[3,6-dihydro-3-methyl-2,6-dioxo-4-(trifluoromethyl)-1(2H)-pyrimidinyl]-4-fluorophenyl}imino}-4-oxo-5-thiazolidineacetohydroxamic acid]
- Preemergence herbicidal rating CASOB ([1]; 0.0156 kg/ha): 0.0
- Preemergence herbicidal rating CASOB ([1]; 0.0313 kg/ha): 0.0
- Preemergence herbicidal rating CASOB ([1]; 0.0625 kg/ha): 1.0
- Preemergence herbicidal rating CASOB ([1]; 0.1250 kg/ha): 9.0
- Preemergence herbicidal rating CASOB ([1]; 0.2500 kg/ha): 9.0
- Preemergence herbicidal rating CASOB ([1]; 0.5000 kg/ha): 9.0
- herbicidal rating ECHCG ([2]; rate 0.0156 kg/ha): 0.0
- herbicidal rating ECHCG ([2]; rate 0.0313 kg/ha): 0.0
- herbicidal rating ECHCG ([2]; rate 0.0625 kg/ha): 4.0
- herbicidal rating ECHCG ([2]; rate 0.1250 kg/ha): 4.0
- herbicidal rating ORYSAT ([3]; rate 0.0156 kg/ha): 2.5
- herbicidal rating ORYSAT ([3]; rate 0.0313 kg/ha): 3.0
- herbicidal rating ORYSAT ([3]; rate 0.0625 kg/ha): 3.5
- herbicidal rating ORYSAT ([3]; rate 0.1250 kg/ha): 3.5
- Preemergence herbicidal rating GALAP ([4]; 0.0156 kg/ha): 0.0
- Preemergence herbicidal rating GALAP ([4]; 0.0313 kg/ha): 0.0
- Preemergence herbicidal rating GALAP ([4]; 0.0625 kg/ha): 3.0
- Preemergence herbicidal rating GALAP ([4]; 0.1250 kg/ha): 7.0
- Preemergence herbicidal rating GALAP ([4]; 0.2500 kg/ha): 7.0
- Preemergence herbicidal rating GALAP ([4]; 0.5000 kg/ha): 9.0
- Preemergence herbicidal rating CHEAL ([5]; 0.0156 kg/ha): 6.0
- Preemergence herbicidal rating CHEAL ([5]; 0.0313 kg/ha): 7.0
- Preemergence herbicidal rating CHEAL ([5]; 0.0625 kg/ha): 9.0
- Preemergence herbicidal rating CHEAL ([5]; 0.1250 kg/ha): 9.0
- Preemergence herbicidal rating CHEAL ([5]; 0.2500 kg/ha): 9.0
- Preemergence herbicidal rating CHEAL ([5]; 0.5000 kg/ha): 9.0
- herbicidal effect rating, CYPSE ([6]; 0.0313 kg/ha): 0.0
- herbicidal effect rating, CYPSE ([6]; 0.0625 kg/ha): 0.0
- herbicidal effect rating, CYPSE ([6]; 0.1250 kg/ha): 0.0
- herbicidal effect rating, CYPSE ([6]; 0.2500 kg/ha): 3.0
- herbicidal rating ZEAMX ([7]; rate 0.0156 kg/ha): 4.5
- herbicidal rating ZEAMX ([7]; rate 0.0313 kg/ha): 6.5
- herbicidal rating ZEAMX ([7]; rate 0.0625 kg/ha): 7.0
- herbicidal rating ZEAMX ([7]; rate 0.1250 kg/ha): 7.5
- herbicidal rating AMBEL ([8]; rate 0.0156 kg/ha): 1.0
- herbicidal rating AMBEL ([8]; rate 0.0313 kg/ha): 4.0
- herbicidal rating AMBEL ([8]; rate 0.0625 kg/ha): 9.0
- herbicidal rating AMBEL ([8]; rate 0.1250 kg/ha): 9.0
- herbicidal rating ABUTH ([9]; rate 0.0156 kg/ha): 0.0
- herbicidal rating ABUTH ([9]; rate 0.0313 kg/ha): 5.0
- herbicidal rating ABUTH ([9]; rate 0.0625 kg/ha): 7.0
- herbicidal rating ABUTH ([9]; rate 0.1250 kg/ha): 9.0
- herbicidal rating CHEAL ([10]; rate 0.0156 kg/ha): 1.0
- herbicidal rating CHEAL ([10]; rate 0.0313 kg/ha): 5.0
- herbicidal rating CHEAL ([10]; rate 0.0625 kg/ha): 7.0
- herbicidal rating CHEAL ([10]; rate 0.1250 kg/ha): 9.0
- herbicidal rating GLXMAW ([11]; rate 0.0156 kg/ha): 5.0
- herbicidal rating GLXMAW ([11]; rate 0.0313 kg/ha): 6.5
- herbicidal rating GLXMAW ([11]; rate 0.0625 kg/ha): 7.0
- herbicidal rating GLXMAW ([11]; rate 0.1250 kg/ha): 8.5
- Preemergence herbicidal rating AMBEL ([12]; 0.0156 kg/ha): 0.0
- Preemergence herbicidal rating AMBEL ([12]; 0.0313 kg/ha): 3.0
- Preemergence herbicidal rating AMBEL ([12]; 0.0625 kg/ha): 5.0
- Preemergence herbicidal rating AMBEL ([12]; 0.1250 kg/ha): 9.0
- Preemergence herbicidal rating AMBEL ([12]; 0.2500 kg/ha): 9.0
- Preemergence herbicidal rating AMBEL ([12]; 0.5000 kg/ha): 9.0

Compound: COc1cccc(CN2C(=O)CSC2=Nc2cc(-n3c(=O)cc(C(F)(F)F)n(C)c3=O)c(F)cc2Cl)c1 [Compound 137, 3-{4-Chloro-2-fluoro-5-{[3-(m-methoxybenzyl)-4-oxo-2-thiazolidinylidene]amino}phenyl}-1-methyl-6-(trifluoromethyl)-2,4(1H,3H)-pyrimidinedione]
- Preemergence herbicidal rating CASOB [1, 13]: 0.0
- Preemergence herbicidal rating CASOB [1, 14]: 0.0
- Preemergence herbicidal rating CASOB [1, 15]: 0.0
- herbicidal rating ECHCG ([2]; rate 0.0156 kg/ha): 2.0
- herbicidal rating ECHCG ([2]; rate 0.0313 kg/ha): 1.0
- herbicidal rating ECHCG ([2]; rate 0.0625 kg/ha): 3.0
- herbicidal rating ORYSAT ([3]; rate 0.0156 kg/ha): 3.0
- herbicidal rating ORYSAT ([3]; rate 0.0313 kg/ha): 3.0
- herbicidal rating ORYSAT ([3]; rate 0.0625 kg/ha): 3.5
- Preemergence herbicidal rating GALAP [4, 13]: 0.0
- Preemergence herbicidal rating GALAP [4, 14]: 0.0
- Preemergence herbicidal rating GALAP [4, 15]: 0.0
- Preemergence herbicidal rating CHEAL [5, 13]: 9.0
- Preemergence herbicidal rating CHEAL [5, 14]: 9.0
- Preemergence herbicidal rating CHEAL [5, 15]: 9.0
- herbicidal effect rating, CYPSE ([6]; 0.0313 kg/ha): 0.0
- herbicidal effect rating, CYPSE ([6]; 0.0625 kg/ha): 0.0
- herbicidal effect rating, CYPSE ([6]; 0.1250 kg/ha): 0.0
- herbicidal effect rating, CYPSE ([6]; 0.2500 kg/ha): 0.0
- herbicidal rating ZEAMX ([7]; rate 0.0156 kg/ha): 4.0
- herbicidal rating ZEAMX ([7]; rate 0.0313 kg/ha): 4.0
- herbicidal rating ZEAMX ([7]; rate 0.0625 kg/ha): 4.0
- herbicidal rating AMBEL ([8]; rate 0.0156 kg/ha): 9.0
- herbicidal rating AMBEL ([8]; rate 0.0313 kg/ha): 9.0
- herbicidal rating AMBEL ([8]; rate 0.0625 kg/ha): 9.0
- herbicidal rating ABUTH ([9]; rate 0.0156 kg/ha): 9.0
- herbicidal rating ABUTH ([9]; rate 0.0313 kg/ha): 9.0
- herbicidal rating ABUTH ([9]; rate 0.0625 kg/ha): 9.0
- herbicidal rating CHEAL ([10]; rate 0.0156 kg/ha): 6.0
- herbicidal rating CHEAL ([10]; rate 0.0313 kg/ha): 9.0
- herbicidal rating CHEAL ([10]; rate 0.0625 kg/ha): 9.0
- herbicidal rating GLXMAW ([11]; rate 0.0156 kg/ha): 6.0
- herbicidal rating GLXMAW ([11]; rate 0.0313 kg/ha): 5.5
- herbicidal rating GLXMAW ([11]; rate 0.0625 kg/ha): 5.5
- Preemergence herbicidal rating AMBEL [12, 13]: 0.0
- Preemergence herbicidal rating AMBEL [12, 14]: 0.0
- Preemergence herbicidal rating AMBEL [12, 15]: 7.0

Compound: Cn1c(C(F)(F)F)cc(=O)n(-c2cc(N=C3SCC(=O)N3Cc3ccc(Cl)cc3)c(Cl)cc2F)c1=O [Compound 145, 3-{4-Chloro-5-{[3-(p-chlorobenzyl)-4-oxo-2-thiazolidinylidene]amino}-2-fluorophenyl}-1-methyl-6-(trifluoromethyl)-2,4(1H,3H)-pyrimidinedione]
- Preemergence herbicidal rating CASOB [1, 16]: 1.0
- Preemergence herbicidal rating CASOB [1, 17]: 1.0
- Preemergence herbicidal rating CASOB [1, 13]: 6.0
- Preemergence herbicidal rating CASOB [1, 14]: 1.0
- Preemergence herbicidal rating CASOB [1, 15]: 7.0
- herbicidal rating ECHCG ([2]; rate 0.0156 kg/ha): 2.0
- herbicidal rating ECHCG ([2]; rate 0.0313 kg/ha): 3.0
- herbicidal rating ECHCG ([2]; rate 0.0625 kg/ha): 3.0
- herbicidal rating ORYSAT ([3]; rate 0.0156 kg/ha): 2.5
- herbicidal rating ORYSAT ([3]; rate 0.0313 kg/ha): 2.5
- herbicidal rating ORYSAT ([3]; rate 0.0625 kg/ha): 3.5
- Preemergence herbicidal rating GALAP [4, 16]: 0.0
- Preemergence herbicidal rating GALAP [4, 17]: 0.0
- Preemergence herbicidal rating GALAP [4, 13]: 0.0
- Preemergence herbicidal rating GALAP [4, 14]: 1.0
- Preemergence herbicidal rating GALAP [4, 15]: 3.0
- Preemergence herbicidal rating CHEAL [5, 16]: 7.0
- Preemergence herbicidal rating CHEAL [5, 17]: 9.0
- Preemergence herbicidal rating CHEAL [5, 13]: 7.0
- Preemergence herbicidal rating CHEAL [5, 14]: 9.0
- Preemergence herbicidal rating CHEAL [5, 15]: 9.0
- herbicidal effect rating, CYPSE ([6]; 0.1250 kg/ha): 9.0
- herbicidal effect rating, CYPSE ([6]; 0.2500 kg/ha): 9.0
- herbicidal rating ZEAMX ([7]; rate 0.0156 kg/ha): 4.0
- herbicidal rating ZEAMX ([7]; rate 0.0313 kg/ha): 4.0
- herbicidal rating ZEAMX ([7]; rate 0.0625 kg/ha): 5.0
- herbicidal rating AMBEL ([8]; rate 0.0156 kg/ha): 9.0
- herbicidal rating AMBEL ([8]; rate 0.0313 kg/ha): 9.0
- herbicidal rating AMBEL ([8]; rate 0.0625 kg/ha): 9.0
- herbicidal rating ABUTH ([9]; rate 0.0156 kg/ha): 9.0
- herbicidal rating ABUTH ([9]; rate 0.0313 kg/ha): 9.0
- herbicidal rating ABUTH ([9]; rate 0.0625 kg/ha): 9.0
- herbicidal rating CHEAL ([10]; rate 0.0156 kg/ha): 5.0
- herbicidal rating CHEAL ([10]; rate 0.0313 kg/ha): 9.0
- herbicidal rating CHEAL ([10]; rate 0.0625 kg/ha): 9.0
- herbicidal rating GLXMAW ([11]; rate 0.0156 kg/ha): 4.5
- herbicidal rating GLXMAW ([11]; rate 0.0313 kg/ha): 5.0
- herbicidal rating GLXMAW ([11]; rate 0.0625 kg/ha): 5.5
- Preemergence herbicidal rating AMBEL [12, 16]: 0.0
- Preemergence herbicidal rating AMBEL [12, 17]: 0.0
- Preemergence herbicidal rating AMBEL [12, 13]: 2.0
- Preemergence herbicidal rating AMBEL [12, 14]: 5.0
- Preemergence herbicidal rating AMBEL [12, 15]: 7.0
